In one data set the test system is NIH3T3 RET/C634Y cells. The data set can be described thus: Phosphorylation and signalling Western blot in NIH3T3 RET/C634Y cells. Type of data set: cell-based. Conditions: 10.0 nM, 2 h. How it is done:
Protein lysates were prepared according to standard procedures. Briefly, cells were lysed in a buffer containing 50 mM N-2-hydroxyethylpiperazine-N′-2-ethanesulfonic acid (HEPES; pH 7.5), 1% (v/v) Triton X-100, 150 mM NaCl, 5 mM EGTA, 50 mM NaF, 20 mM sodium pyrophosphate, 1 mM sodium vanadate, 2 mM phenylmethanesulfonyl fluoride (PMSF), and 1 μg/mL aprotinin. Lysates were clarified by centrifugation at 10000g for 15 min. […] Immune complexes were detected with the enhanced chemiluminescence kit (Amersham Pharmacia Biotech, Little Chalfont, U.K.). Anti-phospho-SHC (#Y317), which recognizes SHC protein when phosphorylated on Y317, was from Upstate Biotechnology Inc. (Lake Placid, NY). Anti-SHC (H-108) was from Santa Cruz Biotechnology (Santa Cruz, CA). Anti-MAPK (9101) and anti-phospho-MAPK (9102), specific for p42/44MAPK (ERK1/2) phosphorylated on Thr202/Tyr204, antibodies were from Cell Signaling Technologies (Danvers, MA). Anti-phospho-VEGFR2/KDR (2478), specific for VEGFR2/KDR phosphorylated on Tyr1175, and anti-VEGFR2/KDR (2479) were from Cell Signaling Technologies. Anti-phospho-p70S6K (9234), specific for p70S6K phosphorylated on Thr389, and anti-p70S6K (2708) were from Cell Signaling Technologies. […]
On the technique in general: In western blotting, separated proteins are transferred to a membrane and probed.

The test system of data set [1] is CCDC6-RET, NCOA4-RET, and FGFR1OP-RET. The data set can be described thus: RET phosphorylation Western blot in NIH3T3 cells, rearranged RET. Type of data set: cell-based. Conditions: 2 h. As to the method:
Fibroblasts transfected with RET/C634R were treated with increasing doses of NPA101.3, ranging from 0.1 to 10.0 nM. RET autophosphorylation was assessed by Western blotting using two different antibodies that can recognize phosphorylated Y905, located in the RET kinase activation loop, or Y1062, a multidocking site involved in RET downstream signaling.[41]
Figure 4 NPA101.3-mediated inhibition of phosphorylation and signaling of oncogenic RET mutants and VEGFR2 in intact cells. Serum-starved RAT1 cells exogenously expressing the (A and B) indicated RET point mutants or (C) NIH3T3 cells exogenously expressing the indicated RET rearranged mutants were treated for 2 h with the indicated concentrations of the compound. Total cell lysates (50 μg) were subjected to immunoblotting with anti-phospho-Y1062 (αp1062) and anti-phospho-Y905 (αp905) RET antibodies. The blots were normalized using the anti-RET (αRET) antibody. (D) HEK293 cells were transiently transfected with human VEGFR2; 36 h after transfection, cells were serum starved for 12 h. The indicated doses of the compound or vehicle (NT) were added for 2 h, and then VEGFA (100 ng/mL) stimulation was applied for 15 min. […]
Protein lysates were prepared according to standard procedures. […] Immune complexes were detected with the enhanced chemiluminescence kit (Amersham Pharmacia Biotech, Little Chalfont, U.K.). […]

The test system of the next data set is NIH3T3 RET/C634Y tumors. Type of data set: in vivo. As to the method:
In vivo target (RET and VEGFR2) inhibition was studied by treating animals grafted with NIH3T3 RET/C634Y cells at different doses (0.3, 1, or 3 mg/kg/day p.o.) of NPA101.3 for 2 days and then performing Western blot analysis on protein extracts. […] Then, to determine antitumorigenic activity and to better distinguish RET- and VEGFR2-mediated effects, we tested NPA101.3 in nude mice transplanted with NIH3T3 cells transformed by either RET/C634Y or HRAS/G12V. Before tumors appeared, animals were treated daily with NPA101.3 (1.0, 3.0, or 10.0 mg/kg/day) or left untreated. […] Still, VEGFR2 inhibition was detected also in RAS-driven tumors, an effect that might explain the, albeit reduced, effect of the drug on their growth (Figure S13). Importantly, as predicted, no trace of NPA101.3 demethyl metabolites was detected after 1 or 4 h from oral dosing in mice (Figure S14).
Figure 6 Effects of NPA101.3 on in vivo tumor growth. NIH3T3 cells transformed by RET/C634Y or HRAS/G12V were inoculated subcutaneously into nu/nu mice. After 4 days, animals were randomly assigned to receive for the indicated time periods the compound (1.0, 3.0, or 10 mg/kg/day) (24 mice; 8 mice/group for 1, 3, and 10 mg/kg doses) or vehicle (8 mice) by oral gavage. The average size of tumors is reported ± SD.
NPA101.3 was dissolved in 80% H2O, 19.875% Tween 20, and 0.125% xanthan gum. The formulation was stored at room temperature and vortexed prior to administration. NIH3T3 RET/C634Y (200000) or NIH3T3 HRAS/G12V (50000) cells were inoculated subcutaneously into the dorsal portion (both sides) of 6-week-old female BALB/c nu/nu mice (32 mice/cell line) (Jackson Laboratories, Bar Harbor, ME). After 4 days, before tumors had appeared, animals were randomly assigned to receive NPA101.3 (1.0, 3.0, or 10 mg/kg/day) (8 mice/group) or vehicle control (8 mice) by oral gavage. Tumor diameters were measured with caliper every 2–3 days. Tumor volumes (V) were calculated by the rotational ellipsoid formula V = A × B^2/2 (A is the axial diameter, and B is the rotational diameter). […] Animals were fed ad libitum on an autoclaved diet and tap water and maintained at the Dipartimento di Medicina Molecolare e Biotecnologie Mediche Animal Facility. All manipulations were performed while the animals were under isoflurane gas anesthesia. Animal studies were conducted in accordance with Italian regulations for experimentation on animals and approved by the Italian Ministry of Health (Authorization 1023/2015-PR). To compare tumor growth, an unpaired Student’s t test (InStat program, GraphPad Software) was used. P values were statistically significant at the P < 0.05 level. […]

For `CC(C)(C)c1cc(NC(=O)Cc2ccc(-n3cnc4cc(-c5ccc(S(C)(=O)=O)cc5)ccc43)cc2)no1` [NPA101.3], in the data set on NIH3T3 RET/C634Y cells, the “phosphorylation of MAPK” value is recorded as “attenuated”; the “phosphorylation of RET and SHC” value was “almost completely inhibited”. Besides, the “phosphorylation of rearranged RET oncoproteins” value in data set [1] is “highly sensitive”. The “RET phosphorylation and signaling in NIH3T3 RET/C634Y tumors” value in the data set on NIH3T3 RET/C634Y tumors (1.0 mg/kg, 3 h after last dose) was “strong RET phosphorylation and signaling inhibition”. In addition, in the data set with NIH3T3 RET/C634Y tumors (10 mg/kg/day oral, nu/nu mice, treatment before tumors appeared), the “tumor formation induced by RET/C634Y-transformed cells” value is given as “completely prevented”. The “rate of growth of RET-driven tumors” value with NIH3T3 RET/C634Y tumors (lower doses (1.0, 3.0 mg/kg/day) oral) was “significantly reduced”. Further, in the data set with NIH3T3 RET/C634Y tumors (mouse, in vivo), the “signs of wasting or toxicity in xenograft mice” value is given as “No mouse showed signs of wasting or other signs of toxicity”.

The record behind these values is paper PMC7901654, “Bioisosteric Discovery of NPA101.3, a Second-Generation RET/VEGFR2 Inhibitor Optimized for Single-Agent Polypharmacology” (Journal of Medicinal Chemistry, 2020).
